According to patent US9115072B2, “Compounds and method for reducing uric acid” (WELLSTAT THERAPEUTICS CORPORATION, priority 2008, dated 2015):
“And” between values parts separate entries of the source, which are not always exact repeats. Equal entries are not always repeated.

Assay: Mouse oral single-dose pharmacokinetic study
Type: in vivo
Conditions: for Compound EH Concentration in mouse PLASMA: individual mice; for Compound EH concentr., mean: Data from Sigma Stat
Experimental: • 1. Mice received single oral gavage of Compound EH, 100 mg/kg, and plasma was collected at certain times. • 2. Plasma was stored at −80° C. until the day of analysis. • 3. Samples were thawed on 37° C. bath for 5 min and vortexed at top speed for 10 sec. • 4. Mouse plasma, 0.1 mL was mixed with 0.2 mL Acetonitrile, vortexed 1 min, spun down 14000 rpm, 17000 g, at 4° C., for 25 min. • 5. Supernatants were filtered through 0.45 micron, 4 mm, PTFE membrane syringe filter (Phenomenex #AF0-3102-52), and 15 microL were injected and resolved on Luna 3 micron, 100 A pore, C8(2), 150×3 mm, reverse phase column (Phenomenex#00E-4248-YO, SN#259151-7) in 50 min linear gradient from 40% to 69% of (0.1% Formic Acid, 89.9% Acetonitrile, 10% Methanol) at 0.25 mL/min, 100 bar, 37° C. column temperature, method 406975M1, Sequence 0205-09A, Agilent 1100 LC-MS.
All samples were run in duplicate, 210 nm and 230 nm Absorbances, Negative and Positive ionization spectrograms recorded.
• Step 1. Plasma from “Vehicle” animals (pooled), 0.19 mL, was mixed with 0.01 mL 20× stock of Compound EH in Methanol to make 500 microM, 250 microM, 125 microM, . . . , concentrations of Compound EH in plasma. • For example: 190 microL plasma+10 microL of 10 mM Compound EH in methanol=0.2 mL plasma with 500 microM Compound EH. • Step 2. Samples from step 1 were vortexed for 10 sec at top speed. • Step 3. 0.4 mL of acetonitrile was added to all samples from Step 2, and all vials were vortexed at top speed for 1 min • Step 4. All samples from step 3 were spun down 14000 rpm, 17000 g, at 4° C., for 25 min. • Step 5. Supernatants were filtered through 0.45 micron, 4 mm, PTFE membrane syringe filter (Phenomenex #AF0-3102-52), 15 microL were injected and resolved on Luna 3 micron, 100 A pore, C8(2), 150×3 mm, reverse phase column

- Compound EH Concentration in mouse PLASMA (100 mg/kg single oral gavage, bleed time 0.5 HR, 100 mg/kg): 430 µM and 342 µM and 523 µM
- Compound EH Concentration in mouse PLASMA (100 mg/kg single oral gavage, bleed time 1 HR, 100 mg/kg): 467 µM and 447 µM and 406 µM
- Compound EH Concentration in mouse PLASMA (100 mg/kg single oral gavage, bleed time 2 HR, 100 mg/kg): 178 µM and 238 µM and 241 µM
- Compound EH Concentration in mouse PLASMA (100 mg/kg single oral gavage, bleed time 4 HR, 100 mg/kg): 148 µM and 154 µM and 134 µM
- Compound EH Concentration in mouse PLASMA (100 mg/kg single oral gavage, bleed time 6 HR, 100 mg/kg): 93 µM and 268 µM and 231 µM
- Compound EH Concentration in mouse PLASMA (100 mg/kg single oral gavage, bleed time 8 HR, 100 mg/kg): 95 µM and 147 µM and 187 µM
- Compound EH Concentration in mouse PLASMA (100 mg/kg single oral gavage, bleed time 12 HR, 100 mg/kg): 79 µM and 36 µM and 74 µM
- Compound EH Concentration in mouse PLASMA (100 mg/kg single oral gavage, bleed time 16 HR, 100 mg/kg): 25 µM and 61 µM
- Compound EH Concentration in mouse PLASMA (100 mg/kg single oral gavage, bleed time 24 HR, 100 mg/kg): 40 µM and 26 µM and 0.74 µM
- Compound EH Concentration in mouse PLASMA (100 mg/kg single oral gavage, bleed time 48 HR): 0 µM
- Compound EH concentr., mean (mouse plasma, 100 mg/kg oral, time bleed 0 HR): 0 µM
- Compound EH concentr., mean (mouse plasma, 100 mg/kg oral, time bleed 0.5 HR): 431.7 µM
- Compound EH concentr., mean (mouse plasma, 100 mg/kg oral, time bleed 1 HR): 440 µM
- Compound EH concentr., mean (mouse plasma, 100 mg/kg oral, time bleed 2 HR): 219 µM
- Compound EH concentr., mean (mouse plasma, 100 mg/kg oral, time bleed 4 HR): 145.3 µM
- Compound EH concentr., mean (mouse plasma, 100 mg/kg oral, time bleed 6 HR): 197.3 µM
- Compound EH concentr., mean (mouse plasma, 100 mg/kg oral, time bleed 8 HR): 143 µM
- Compound EH concentr., mean (mouse plasma, 100 mg/kg oral, time bleed 12 HR): 63 µM
- Compound EH concentr., mean (mouse plasma, 100 mg/kg oral, time bleed 16 HR): 43 µM
- Compound EH concentr., mean (mouse plasma, 100 mg/kg oral, time bleed 24 HR): 22.247 µM
- Compound EH concentr., mean (mouse plasma, 100 mg/kg oral, time bleed 48 HR): 0 µM
- Cmax (mouse plasma, 100 mg/kg single oral gavage): 440 µM
- concentration at 0 h (mouse, plasma, 100 mg/kg oral, Time 0 HR, Table 13, read-out: Cpd. EH (mouse plasma concentration)): 0 nM
- concentration at 0.5 h (mouse, plasma, 100 mg/kg oral, Time 0.5 HR, Table 13, read-out: Cpd. EH (mouse plasma concentration)): 432 µM
- concentration at 1 h (mouse, plasma, 100 mg/kg oral, Time 1 HR, Table 13, read-out: Cpd. EH (mouse plasma concentration)): 440 µM
- concentration at 2 h (mouse, plasma, 100 mg/kg oral, Time 2 HR, Table 13, read-out: Cpd. EH (mouse plasma concentration)): 219 µM
- concentration at 4 h (mouse, plasma, 100 mg/kg oral, Time 4 HR, Table 13, read-out: Cpd. EH (mouse plasma concentration)): 145 µM
- concentration at 6 h (mouse, plasma, 100 mg/kg oral, Time 6 HR, Table 13, read-out: Cpd. EH (mouse plasma concentration)): 197 µM
- concentration at 8 h (mouse, plasma, 100 mg/kg oral, Time 8 HR, Table 13, read-out: Cpd. EH (mouse plasma concentration)): 143 µM
- concentration at 12 h (mouse, plasma, 100 mg/kg oral, Time 12 HR, Table 13, read-out: Cpd. EH (mouse plasma concentration)): 63 µM
- concentration at 16 h (mouse, plasma, 100 mg/kg oral, Time 16 HR, Table 13, read-out: Cpd. EH (mouse plasma concentration)): 43 µM
- concentration at 24 h (mouse, plasma, 100 mg/kg oral, Time 24 HR, Table 13, read-out: Cpd. EH (mouse plasma concentration)): 22 µM
- concentration at 48 h (mouse, plasma, 100 mg/kg oral, Time 48 HR, Table 13, read-out: Cpd. EH (mouse plasma concentration)): 0 nM
SMILES: Cc1ccc(CC(=O)O)cc1OCc1c(C)cccc1C [Compound EH, 2-(3-(2,6-Dimethylbenzyloxy)-4-methylphenyl)acetic acid]
